Structures are written as SMILES. Where a name gives a salt, the structure may show the parent alone.

The target of assay [1] is T1, oxytocin receptors (Rattus norvegicus, UniProt P70536).
T1 sequence (P70536 1-388): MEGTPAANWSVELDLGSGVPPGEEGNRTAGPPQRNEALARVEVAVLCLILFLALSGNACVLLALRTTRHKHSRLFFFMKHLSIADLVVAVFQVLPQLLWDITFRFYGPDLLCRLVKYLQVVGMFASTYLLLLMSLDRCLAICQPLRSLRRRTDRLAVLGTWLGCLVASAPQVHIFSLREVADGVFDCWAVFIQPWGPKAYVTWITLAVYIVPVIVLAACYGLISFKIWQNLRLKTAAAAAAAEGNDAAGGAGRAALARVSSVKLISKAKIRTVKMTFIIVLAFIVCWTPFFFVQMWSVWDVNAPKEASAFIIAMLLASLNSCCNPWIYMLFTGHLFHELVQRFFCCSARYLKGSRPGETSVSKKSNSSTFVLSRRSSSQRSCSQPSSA
The experiment in a line: Oxytocin Receptor Binding. To be noted: for IC50: rat uterine membranes, [3H]oxytocin.
Procedure: Female Sprague-Dawley rats weighing approximately 200-250 g are injected intramuscularly (i.m.) with 0.3 mg/kg of body weight of diethylstilbestrol (DES). The rats are sacrificed 18 hours later under pentobarbital anesthesia. The uteri are dissected out, cleaned of fat and connective tissues and rinsed in 50 ml of normal saline. The tissue pooled from six rats is homogenized in 50 ml of 0.01 mM Tris.HCl, containing 0.5 mM dithiothreitol and 1.0 mM EDTA, adjusted to pH 7.4, using a polytron at setting 6 with three passes of 10 sec each. The homogenate is passed through two (2) layers of cheesecloth and the filtrate centrifuged at 1000×g for 10 min. The clear supernatant is removed and recentrifuged at 165,000×g for 30 min. The resulting pellet containing the oxytocin receptors is resuspended in 50.0 mM Tris.HCl containing 5.0 mM MgCl2 at pH 7.4, to give a protein concentration of 2.5 mg/ml of tissue suspension. This preparation is used in subsequent binding assays with [^3 H]Oxytocin.
Binding of 3,5-[^3 H]Oxytocin ([^3 H]OT) to its receptors is done in microtiter plates using [^3 H]OT, at various concentrations, in an assay buffer of 50.0 mM Tris.HCl, pH 7.4 and containing 5.0 mM MgCl2, and a mixture of protease inhibitors: BSA, 0.1 mg; aprotinin, 1.0 mg; 1,10-phenanthroline, 2.0 mg; trypsin, 10.0 mg; and PMSF, 0.3 mg per 100 ml of buffer solution. Non-specific binding is determined in the presence of 1.0 uM unlabeled OT. The binding reaction is terminated after 60 min., at 220° C., by rapid filtration through glass fiber filters using a Brandel® cell harvester (Bio-medical Research and Development Laboratories, Inc., Gaithersburg, Md.). Competition experiments are conducted at equilibrium using 1.0 nM [^3 H]OT and varying the concentration of the displacing agents. The concentrations of agent displacing 50% of [^3 H]OT at its sites (IC50) are calculated by a computer assisted LUNDON-2 program (LUNDON SOFTWARE INC., Ohio, USA).

For assay [2], the target named is Rat Hepatic V1 Receptors (Rattus norvegicus, UniProt P30560). In words: Binding Assay to Rat Hepatic V1 Receptors. The procedure:
Binding Assay to Rat Hepatic V1 Receptors
Rat liver plasma membranes expressing the vasopressin V1 receptor subtypes are isolated by sucrose density gradient according to the method described by Lesko et al, (1973). These membranes are quickly suspended in 50.0 mM Tris.HCl buffer, pH 7.4, containing 0.2% bovine serum albumin (BSA) and 0.1 mM phenylmethylsulfonylfluoride (PMSF) and kept frozen at -70° C. until used in subsequent binding experiments. For binding experiments, the following is added to the wells of a ninety-six well format microtiter plate: 100 μl of 100.0 mM Tris.HCl buffer containing 10.0 mM MgCl2, 0.2% heat inactivated BSA and a mixture of protease inhibitors: leupeptin, 1.0 mg %; aprotinin, 1.0 mg %; 1,10-phenanthroline,2.0 mg %; trypsin inhibitor, 10.0 mg % and 0.1 mM PMSF, 20.0 μl of [phenylalanyl-3,4,5,-^3 H] vaso-pressin (S.A. 45.1 Ci/mmole) at 0.8 nM, and the reaction initiated by the addition of 80 μl of tissue membranes containing 20 μg of tissue protein. The plates are kept undisturbed on the bench top at room temperature for 120 min. to reach equilibrium. Non-specific samples are assayed in the presence of 0.1 μm of the unlabeled antagonist phenylalanylvasopressin, added in 20.0 μl volume. For test compounds, these are solubilized in 50% dimethylsulfoxide (DMSO) and added in 20.0 μl volume to a final incubation volume of 200 μl. Upon completion of binding, the content of each well is filtered off, using a Brandel® cell Harvester (Gaithersburg, Md.). The radioactivity trapped on the filter disk by the ligand-receptor complex is assessed by liquid scintillation counting in a Packard LS Counter, with an efficiency of 65% for tritium. The data are analyzed for IC50 values by the LUNDON-2 program for competition (LUNDON SOFTWARE, Ohio).

Assay [3] has as its target T2, Rat Kidney Medullary V2 Receptors (Rattus norvegicus, UniProt Q00788).
T2 construct: Medullary tissues from rat kidneys are dissected out; from tissue; host or cells: rat kidney medulla membranes
The experiment in a line: biochemical. The class given is binding. The procedure:
Binding Assay to Rat Kidney Medullary V2 Receptors
Medullary tissues from rat kidneys are dissected out, cut into small pieces and soaked in a […] sodium chloride solution containing 1.0 mM EDTA with many changes of the liquid phase, until the solution is clear of blood. The tissue is homogenized in a 0.25M sucrose solution containing 1.0 mM EDTA and 0.1 mM PMSF using a Potter-Elvehjem homogenizer with a teflon pestle. The homogenate is filtered through several layers (4 layers) of cheese cloth. The filtrate is rehomogenized using a dounce homogenizer, with a tight fitting pestle. The final homogenate is centrifuged at 1500×g for 15 min. The nuclear pellet is discarded and the supernatant fluid recentrifuged at 40,000×g for 30 min. The resulting pellet formed contains a dark inner part with the exterior, slightly pink. The pink outer part is suspended in a small amount of 50.0 mM Tris.HCl buffer, pH 7.4. The protein content is determined by the Lowry's method (Lowry et al, J. Biol. Chem., 1953). The membrane suspension is stored at -70° C., in 50.0 mM Tris.HCl, containing 0.2% inactivated BSA and 0.1 mM PMSF in aliquots of 1.0 ml containing 10.0 mg protein per ml of suspension until use in subsequent binding experiments.
For binding experiments, the following is added in μl volume to wells of a 96 well format of a microtiter plate: 100.0 μl of 100.0 mM Tris.HCl buffer containing 0.2% heat inactivated BSA, 10.0 mM MgCl2 and a mixture of protease inhibitors: leupeptin, 1.0 mg %; aprotinin, 1.0 mg %; 1,10-phenanthroline, 2.0 mg %; trypsin inhibitor, 10.0 mg % and 0.1 mM PMSF, 20.0 μl of [^3 H] Arginine^8, vasopressin (S.A. 75.0 Ci/mmole) at 0.8 nM and the reaction initiated by the addition of 80.0 μl of tissue membranes (200.0 μg tissue protein). The plates are left undisturbed on the bench top for 120 min. to reach equilibrium. Non-specific binding is assessed in the presence of 1.0 μM of unlabeled ligand, added in 20 μl volume. For test compounds, these are solubilized in 50% dimethylsulfoxide (DMSO) and added in 20.0 μl volume to a final incubation volume of 200 μl. Upon completion of binding, the content of each well is filtered off, using a Brandel® cell Harvester (Gaithersburg, Md.). The radioactivity trapped on the filter disk by the ligand-receptor complex is assessed by liquid scintillation counting in a Packard LS Counter, with an efficiency of 65% for tritium. The data are analyzed for IC50 values by the LUNDON-2 program for competition (LUNDON SOFTWARE, Ohio).

Chain of Rat Hepatic V1 Receptors (P30560 whole entry): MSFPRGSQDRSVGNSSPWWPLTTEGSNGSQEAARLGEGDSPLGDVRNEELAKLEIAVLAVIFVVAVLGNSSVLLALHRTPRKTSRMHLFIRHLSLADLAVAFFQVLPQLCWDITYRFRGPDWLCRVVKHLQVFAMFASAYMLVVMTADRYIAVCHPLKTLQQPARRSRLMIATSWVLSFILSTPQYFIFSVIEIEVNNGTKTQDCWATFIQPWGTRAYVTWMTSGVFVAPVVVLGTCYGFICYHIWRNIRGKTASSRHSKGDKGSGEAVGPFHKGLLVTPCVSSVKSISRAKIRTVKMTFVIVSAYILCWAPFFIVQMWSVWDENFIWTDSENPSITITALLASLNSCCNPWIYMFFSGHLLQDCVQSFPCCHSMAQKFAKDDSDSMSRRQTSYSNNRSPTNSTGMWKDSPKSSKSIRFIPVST
T2 sequence (Q00788 whole entry): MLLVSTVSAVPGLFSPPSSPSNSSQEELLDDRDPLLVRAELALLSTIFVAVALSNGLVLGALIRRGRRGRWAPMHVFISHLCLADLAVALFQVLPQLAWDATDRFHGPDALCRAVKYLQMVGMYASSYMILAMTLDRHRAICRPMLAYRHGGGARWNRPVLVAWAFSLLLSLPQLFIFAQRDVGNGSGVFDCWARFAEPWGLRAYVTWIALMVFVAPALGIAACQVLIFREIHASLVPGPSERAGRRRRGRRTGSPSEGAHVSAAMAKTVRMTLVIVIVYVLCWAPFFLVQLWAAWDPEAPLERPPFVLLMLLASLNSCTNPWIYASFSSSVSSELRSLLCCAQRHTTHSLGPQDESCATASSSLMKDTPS

One may read the inhibition as the share of the control response that was lost under treatment. Higher therefore signals a response far below the control. As a reminder, the IC50 is the concentration at which inhibition is half-maximal. A low value points to greater potency in that assay. As to `O=C(c1ccc(NCC2CCCCC2)nc1)N1Cc2cccn2Cc2ccccc21` [Example 263], testing at 10 µM in assay [1] gave an inhibition of 98%. Moreover, the results for the IC50 in assay [1], in assay [2] and in assay [3] were 380 nM, 200 nM and 360 nM, respectively.
With `CN(C)c1ncccc1C(=O)Nc1ccc(C(=O)N2Cc3cccn3Cc3ccccc32)cc1` [Example 332, N-[4-(5H-Pyrrolo[2,1-c][1,4]benzodiazepin-10(11H)-ylcarbonyl)phenyl]-2-(dimethylamino)-pyridine-3-carboxamide Hydrochloride], the half-inhibitory concentration (IC50) in assay [1] is 830 nM; in assay [2], 31 nM; in assay [3] it was 3.4 nM.
On to `O=C(Nc1ccc(C(=O)N2Cc3cccn3Cc3ccccc32)cn1)c1ccc([N+](=O)[O-])cc1Cl` [Example 33], for which, in assay [1], the inhibition at 10 µM stood at 95%. Moreover, the half-inhibitory concentration (IC50) in assay [1] came to 510 nM; in assay [2], 450 nM; in assay [3] it was 30 nM.
In assay [1], `Cc1ccccc1C(=O)Nc1ncc(C(=O)N2Cc3cccn3Cc3ccccc32)cc1Br` [Example 12] yielded an inhibition at 10 µM of 98%. Further, the IC50 in assay [1] was found to be 800 nM; in assay [2], 210 nM; in assay [3], 24 nM.
With `O=C(Nc1ccc(C(=O)N2Cc3cccn3Cc3ccccc32)cc1)c1ccccc1Cc1ccccc1` [Example 321, N-[4-(5H-Pyrrolo[2,1-c][1,4]benzodiazepine-10(11H)-ylcarbonyl)phenyl]-2-(phenylmethyl)benzamide], the IC50 in assay [2] was found to be 18 nM; in assay [3], 5.1 nM.
For `CN(C)c1ncccc1C(=O)Nc1ccc(C(=O)N2Cc3cccn3Cc3ccccc32)cc1` [Example 338, N-[4-(5H-Pyrrolo[2,1-c][1,4]benzodiazepin-10(11H)-ylcarbonyl)phenyl]-2-(dimethylamino)-pyridine-3-carboxamide], at 10 µM the inhibition in assay [1] was 98%. In addition, the concentration for half-maximal inhibition (IC50) in assay [1] was determined as 720 nM; in assay [2] it was 37 nM; in assay [3], 4.8 nM.
In turn, `O=C(Nc1ccc(C(=O)N2Cc3cccn3Cc3ccccc32)cc1)c1ccccc1-c1ccccn1` [Example 341, N-[4-(5H-Pyrrolo[2,1-c][1,4]benzodiazepin-10(11H)-ylcarbonyl)phenyl]-2-(2-pyridinyl)benzamide] displayed an inhibition at 1 µM in assay [1] (dose 1 μM) of 74%. Also, the values for the concentration for half-maximal inhibition (IC50) in assay [2] and in assay [3] were 20 nM and 4 nM, respectively.
Take `O=C(c1ccc(NCc2ccccc2Br)nc1)N1Cc2cccn2Cc2ccccc21` [Example 352]: in assay [1] (dose 1.25 μM), the inhibition at 1.25 µM turned out to be 96%. Moreover, the half-inhibitory concentration (IC50) in assay [1] amounted to 105 nM; in assay [2], 88 nM; in assay [3], 59 nM.
As for `O=C(Nc1ccc(C(=O)N2Cc3ccnn3Cc3ccccc32)cn1)c1ccccc1-c1ccccc1` [Example 245], the concentration for half-maximal inhibition (IC50) in assay [2] came out at 19 nM; in assay [3], 1 nM.
The molecule `CN1CCN(c2ncccc2C(=O)Nc2ccc(C(=O)N3Cc4cccn4Cc4ccccc43)cc2)CC1` [Example 337, N-[4-(5H-pyrrolo[2,1-c][1,4]benzodiazepin-10(11H)-ylcarbonyl)phenyl]-2-(4-methyl-1-piperazinyl)-pyridine-3-carboxamide] had an inhibition at 1 µM in assay [1] (dose 1 μM) of 16%. Further, the concentration for half-maximal inhibition (IC50) in assay [2] was 1300 nM; in assay [3] it was 650 nM.
`CC(C)(Oc1ccc(Cl)cc1)C(=O)Nc1ccc(C(=O)N2Cc3cccn3Cc3ccccc32)cc1` [Example 347, N-[4-(5H-Pyrrolo[2,1-c][1,4]benzodiazepin-10(11H)-ylcarbonyl)phenyl]-2-methyl-2-(4-chlorophenyloxy)propionamide] registered an inhibition at 10 µM in assay [1] of 86%. The concentration for half-maximal inhibition (IC50) in assay [2] amounted to 180 nM; in assay [3], 420 nM.
Molecule `CC(C)(C)Nc1ccc(C(=O)N2Cc3cccn3Cc3ccccc32)cn1` [Example 348] came in with an inhibition at 10 µM in assay [1] of 95%. The results for the IC50 in assay [1] and in assay [2] were 710 nM and 80 nM, respectively. The same molecule came in with an inhibition at 1 µM in assay [3] of 43%.
For `O=C(Nc1ccc(C(=O)N2Cc3cccn3Cc3ccccc32)c(Cl)c1)c1ccccc1-c1ccccc1` [Example 319, N-[4-(5H-Pyrrolo[2,1-c][1,4]benzodiazepin-10(11H)-ylcarbonyl)-3-chlorophenyl][1,1'-biphenyl]-2-carboxamide], the results for the IC50 in assay [2] and in assay [3] were 16 nM and 1.5 nM, respectively.
Consider `O=C(Nc1ccc(C(=O)N2Cc3cccn3Cc3ccccc32)cc1)c1ccccc1-c1ccccc1` [Example 320, N-[4-(5H-Pyrrolo[2,1-c][1,4]benzodiazepin-10(11H)-ylcarbonyl)phenyl][1,1'-biphenyl]-2-carboxamide], for which the 50% inhibitory concentration (IC50) in assay [2] came to 3.4 nM; in assay [3], 2.6 nM.
Turning to `O=C(Nc1ccc(C(=O)N2Cc3cccn3Cc3ccccc32)cn1)c1ccccc1Br` [Example 8], in assay [1] (dose 1 μM), the inhibition at 1 µM came to 89%. Also, the IC50 in assay [1] was 150 nM; in assay [2], 7 nM; in assay [3] it was 1.6 nM.
On to `Cc1ncccc1C(=O)Nc1ccc(C(=O)N2Cc3cccn3Cc3ccccc32)cn1` [Example 329, N-[5-(5H-Pyrrolo[2,1-c][1,4]benzodiazepin-10(11H)-ylcarbonyl]-2-pyridinyl]-2-methylpyridine-3-carboxamide], for which at 10 µM the inhibition in assay [1] was 91%. The figures for the IC50 in assay [1], in assay [2] and in assay [3] were 190 nM, 310 nM and 70 nM, respectively.
On to `O=C(Nc1ccc(C(=O)N2Cc3cccn3Cc3ccccc32)c(Cl)c1)c1ccccc1Cc1ccccc1` [Example 322, N-[4-(5H-Pyrrolo[2,1-c][1,4]benzodiazenin-10(11H)-ylcarbonyl)-3-chlorophenyl]-2-(phenylmethyl)benzamide], for which the IC50 was found to be 670 nM in assay [2] and 11 nM in assay [3].
In assay [1], `O=C(c1ccc(SC2CCCCC2)nc1)N1Cc2cccn2Cc2ccccc21` [Example 288, 10,11-Dihydro-10-[[6-(cyclohexylthio)-3-pyridinyl]carbonyl]-5H-pyrrolo-[2,1-c][1,4]benzodiazepine] displayed an inhibition at 10 µM of 94% and an IC50 of 1360 nM. This molecule yielded an inhibition at 10 µM in assay [3] (at 10 μM) of 54%.
For `CN1CCN(c2ncccc2C(=O)Nc2ccc(C(=O)N3Cc4cccn4Cc4ccccc43)cc2)CC1` [Example 331, N-[4-(5H-Pyrrolo[2,1-c][1,4]benzodiazepin-10(11H)-ylcarbonyl)phenyl]-2-[N-methylpiperazinyl]-pyridine-3-carboxamide Hydrochloride], the “Oxytocin Binding Assay % Inhibition” value in assay [1] (dose 1 μM, Hydrochloride) is reported as 13%. In addition, the inhibition at 1 µM in assay [3] came out at 43%.

Values taken from US5753648A, “Tricyclic benzazepine vasopressin antagonists” (American Cyanamid Company, priority 1996, dated 1998).
